Reference: US12344614B2, “Benzodiazepine derivatives as GABA a GAMMA1 PAM” (Hoffmann-La Roche Inc., priority 2021, dated 2025)
Read-outs that look alike come from different tables or passages of the source.

What was measured:
[1] = target: h-GABA-A α2β2γ1 receptor (Homo sapiens (Human), UniProt P47869+Q8N1C3); test: Two-electrode voltage clamp electrophysiology in Xenopus oocytes expressing GABAA receptors; type: cell-based; conditions: for Efficacy (GABA) %: % modulation of GABA EC20 = 100*(Fold increase−1), compound at 30-fold Ki α2β2γ1; for Fold increase h-GABA-A α2β2γ1 oocyte @ 30-fold Ki: Xenopus oocytes, GABA EC20, test compound at approx. 30-fold its Ki α2β2γ1
Method: Xenopus laevis oocytes at maturation stages V-VI were used for the expression of cloned mRNA encoding GABAA receptor subunits. Oocytes ready for RNA micro-injection were bought from Ecocyte, Castrop-Rauxel, Germany and stored in modified Barth's medium (composition in mM: NaCl 88, KCl 1, NaHCO3 2.4, HEPES 10, MgSO4 0.82, CaNO3 0.33, CaCl2 0.33, pH=7.5) at 20° C. until the experiment.
Oocytes were plated in 96-well plates for microinjection using the Roboinject automated instrument (MultiChannelSystems, Reutlingen, Germany). Approximately 50 nL of an aqueous solution containing the RNA transcripts for the subunits of the desired GABAA receptor subtype was injected into each oocyte. […] Oocytes were kept in modified Barth's medium (composition in mM: NaCl 88, KCl 1, NaHCO3 4, HEPES 10, MgSO4 0.82, CaNO3 0.33, CaCl, 0.33, pH=7.5) at 20° C. until the experiment.
Electrophysiological experiments were performed using the Roboocyte instrument (MultiChannelSystems, Reutlingen, Germany) on days 3 to 5 after the micro-injection of mRNA. During the experiment the oocytes were constantly superfused by a solution containing (in mM) NaCl 90, KCl 1, HEPES 5, MgCl2 1, CaCl2 1 (pH 7.4). Oocytes were impaled by two glass microelectrodes (resistance: 0.5-0.8 MΩ) which were filled with a solution containing KCl 1M+K-acetate 1.5 M and voltage-clamped to −80 mV. The recordings were performed at room temperature using the Roboocyte two-electrode voltage clamp system (Multichannelsystem). After an initial equilibration period of 1.5 min GABA was added for 1.5 min at a concentration evoking approximately 20% of a maximal current response (EC2O). After another rest interval of 2.5 min GABA was again added evoking a response of similar amplitude and shape. […] Current traces were recorded at a digitization rate of 10 Hz during and shortly before and after the GABA application.
Each compound and concentration was tested on at least 3 oocytes. Different oocytes were used for different compound concentrations.
For the analysis, the digitized current traces of the first and second GABA response were superimposed and, if necessary, rescaled to equal maximal amplitudes. The ratio between the two responses during the time interval of test compound application was calculated point by point. The extremum of the resulting “ratio trace” was taken as the efficacy (“Fold increase”) of the compound expressed as “% modulation of GABA EC20” (100*(Fold increase−1)).

[2] = target: human GABAA α1β3γ2 receptor (Homo sapiens (Human), UniProt P14867+P18507); test: Radioligand binding assay, competition for [3H]Flumazenil, HEK293F cells; conditions: for γ2/γ1 Selectivity Ratio: Ki α1β3γ2 (nM)/Ki α2β2γ1 (nM); for LogSel: Log[Ki α1β3γ2 (nM)/Ki α2β2γ1 (nM)]
Method: The affinity of compounds at GABAA γ2 subunit-containing receptors was measured by competition for [^3H]Flumazenil (81.1 Ci/mmol; Roche) binding to HEK293F cells expressing human (transiently transfected) receptors of composition α1β3γ2.
Harvested pellets from HEK293F cells expressing the different GABAA γ2 receptor subtypes were resuspended in Mannitol Buffer pH 7.2-7.4 and processed as described above for the cells expressing the GABAA γ1 subunit-containing receptors.
Assays were incubated to equilibrium for 1 hour at 4° C. and harvested onto GF/C uni-filters (Packard) by filtration using a Packard harvester and washing with ice-cold wash buffer (50 mM Tris; pH 7.5). After anhydrousing, filter-retained radioactivity was detected by liquid scintillation counting. Ki values were calculated using Excel-Fit (Microsoft) and are the means of two determinations.

[3] = target: human GABAA α1β2γ1 receptor (Homo sapiens (Human), UniProt P14867+Q8N1C3); test: Radioligand binding assay, competition for [3H]RO7239181, membranes from HEK293F cells

Compound | Efficacy (GABA) % [1] | Fold increase h-GABA-A α2β2γ1 oocyte @ 30-fold Ki [1] | Ki [2] | γ2/γ1 Selectivity Ratio [2] | LogSel [2] | Ki [3] | Ki ([3]; [3H]RO7239181 20-30 nM, HEK293F membranes, 1 hour at 4° C., mean of two determinations, read-out: Ki h-GABAA α1β2γ1)
Cc1nnc2n1-c1ccc(Cl)c(Cl)c1C(c1cc(O)ccc1F)=NC2 [Example 3, 3-(7,8-dichloro-1-methyl-4H-[1,2,4]triazolo[4,3-a][1,4]benzodiazepin-6-yl)-4-fluoro-phenol] | 67% | 1.67 | 34.3 nM | 23.7 | 1.37 | 5.44 nM | –
Cc1ccc2c(c1Cl)C(c1cc(O)ccc1F)=NCC(=O)N2C [Example 2, 6-chloro-5-(2-fluoro-5-hydroxy-phenyl)-1,7-dimethyl-3H-1,4-benzodiazepin-2-one] | 70% | 1.70 | 58.2 nM | – | 1.59 | 3.49 nM | –
Cc1nnc2n1-c1ccc(C(F)(F)F)c(Cl)c1C(c1nc(O)ccc1F)=N[C@H]2C [Example 20, 6-[(4S)-7-chloro-1,4-dimethyl-8-(trifluoromethyl)-4H-[1,2,4]triazolo[4,3-a][1,4]benzodiazepin-6-yl]-5-fluoro-pyridin-2-ol] | 120% | 2.20 | 11200 nM | 279.6 | 2.45 | 68.1 nM | –
O=c1ccn2c(n1)CN=C(c1cc(O)ccc1F)c1c-2ccc(C(F)(F)F)c1Cl [Example 11, 8-chloro-7-(2-fluoro-5-hydroxy-phenyl)-9-(trifluoromethyl)-5H-pyrimido[1,2-a][1,4]benzodiazepin-3-one] | 68% | 1.68 | 359 nM | 191.3 | 2.28 | 5.17 nM | –
Cc1cnc2n1-c1ccc(C(F)(F)F)c(Cl)c1C(c1nc(O)ccc1Cl)=N[C@H]2C [Example 26, 5-chloro-6-[(4S)-7-chloro-1,4-dimethyl-8-(trifluoromethyl)-4H-imidazo[1,2-a][1,4]benzodiazepin-6-yl]pyridin-2-ol] | 79% | 1.79 | 6730 nM | 853.7 | 2.93 | 20.5 nM | –
Cc1nc2n(n1)-c1ccc(C(F)(F)F)c(Cl)c1C(c1nc(O)ccc1F)=N[C@H]2C [Example 25, 6-[(4S)-7-chloro-2,4-dimethyl-8-(trifluoromethyl)-4H-[1,2,4]triazolo[1,5-a][1,4]benzodiazepin-6-yl]-5-fluoro-pyridin-2-ol] | 45% | 1.45 | 10600 nM | 977.2 | 2.99 | 25.3 nM | –
Cc1nnc2n1-c1ccc(C(F)(F)F)c(Cl)c1C(c1nc(O)ccc1Cl)=N[C@H]2C [Example 22, 5-chloro-6-[(4S)-7-chloro-1,4-dimethyl-8-(trifluoromethyl)-4H-[1,2,4]triazolo[4,3-a][1,4]benzodiazepin-6-yl]pyridin-2-ol] | 84% | 1.84 | 9690 nM | 704.8 | 2.85 | 42.5 nM | –
CN1C(=O)CN=C(c2cc(O)ccc2F)c2c1ccc(C(F)(F)F)c2Cl [Example 8, 6-chloro-5-(2-fluoro-5-hydroxy-phenyl)-1-methyl-7-(trifluoromethyl)-3H-1,4-benzodiazepin-2-one] | 75% | 1.75 | 80.9 nM | 34.4 | 1.54 | 5.43 nM | –
C[C@@H]1N=C(c2cc(O)ccc2F)c2c(ccc(Cl)c2Cl)-n2ccc(=O)nc21 [Example 5, (5S)-8,9-dichloro-7-(2-fluoro-5-hydroxy-phenyl)-5-methyl-5H-pyrimido[1,2-a][1,4]benzodiazepin-3-one] | 46% | 1.46 | 255 nM | 182.4 | 2.26 | 3.3 nM | –
Cc1nnc2n1-c1ccc(C(F)(F)F)c(Cl)c1C(c1cc(O)ccc1F)=NC2 [Example 9, 3-[7-chloro-1-methyl-8-(trifluoromethyl)-4H-[1,2,4]triazolo[4,3-a][1,4]benzodiazepin-6-yl]-4-fluoro-phenol] | 69% | 1.69 | 106 nM | 32.6 | 1.51 | 8.45 nM | –
COC1CN(C(=O)c2nc3n(n2)-c2ccc(C(F)(F)F)c(Cl)c2C(c2cc(O)ccc2F)=NC3)C1 [Example 16, [7-chloro-6-(2-fluoro-5-hydroxy-phenyl)-8-(trifluoromethyl)-4H-[1,2,4]triazolo[1,5-a][1,4]benzodiazepin-2-yl]-(3-methoxyazetidin-1-yl)methanone] | 48% | 1.48 | 164 nM | 45.6 | 1.66 | – | 11.4 nM
